# Test results from PubChem BioAssay (NCI).
#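 Interpolation was linear, between the two tested concentrations surrounding the appropriate level; five concentrations were tested over 48 hours in 96-well plates. The concentration for full growth arrest is given as TGI.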
# Legend:
# Assay in all cases: NCI tumour cell line growth inhibition, 48 h
# HCT-116 colon = test system: HCT-116 colon
# P388/ADR leukemia = test system: P388/ADR leukemia
# OVCAR-8 ovarian = test system: OVCAR-8 ovarian
# SF-539 CNS = test system: SF-539 CNS
# SNB-75 CNS = test system: SNB-75 CNS
# HOP-92 NSCLC = test system: HOP-92 NSCLC
# OVCAR-3 ovarian = test system: OVCAR-3 ovarian
# SW-620 colon = test system: SW-620 colon
# HT29 colon = test system: HT29 colon
# UACC-62 melanoma = test system: UACC-62 melanoma
# DLD-1 colon = test system: DLD-1 colon
# RXF 393 renal = test system: RXF 393 renal
# DMS 114 small cell lung = test system: DMS 114 small cell lung
# SK-MEL-28 melanoma = test system: SK-MEL-28 melanoma
# HCC-2998 colon = test system: HCC-2998 colon
# K-562 leukemia = test system: K-562 leukemia
# NCI-H460 lung = test system: NCI-H460 lung
# OVCAR-4 ovarian = test system: OVCAR-4 ovarian
# KM20L2 colon = test system: KM20L2 colon
# SN12C renal = test system: SN12C renal
# U251 CNS = test system: U251 CNS
# NCI-H522 lung = test system: NCI-H522 lung
# HOP-18 NSCLC = test system: HOP-18 NSCLC
# HL-60(TB) leukemia = test system: HL-60(TB) leukemia
# SK-MEL-2 melanoma = test system: SK-MEL-2 melanoma
# KM12 colon = test system: KM12 colon
# UO-31 renal = test system: UO-31 renal
# HOP-62 NSCLC = test system: HOP-62 NSCLC
# SK-OV-3 ovarian = test system: SK-OV-3 ovarian
# HCT-15 colon = test system: HCT-15 colon
# SNB-19 CNS = test system: SNB-19 CNS
# SK-MEL-5 melanoma = test system: SK-MEL-5 melanoma
# IGROV1 ovarian = test system: IGROV1 ovarian
# MCF7 breast = test system: MCF7 breast
# OVCAR-5 ovarian = test system: OVCAR-5 ovarian
# COLO 205 colon = test system: COLO 205 colon
# SNB-78 CNS = test system: SNB-78 CNS
# NCI/ADR-RES ovarian = test system: NCI/ADR-RES ovarian
# SF-295 CNS = test system: SF-295 CNS
# SN12K1 renal = test system: SN12K1 renal
# MOLT-4 leukemia = test system: MOLT-4 leukemia
# RPMI-8226 leukemia = test system: RPMI-8226 leukemia
# DMS 273 small cell lung = test system: DMS 273 small cell lung
# XF 498 CNS = test system: XF 498 CNS
# CCRF-CEM leukemia = test system: CCRF-CEM leukemia
# A549 NSCLC = test system: A549 NSCLC
# LOX IMVI melanoma = test system: LOX IMVI melanoma
# NCI-H23 lung = test system: NCI-H23 lung
# SF-268 CNS = test system: SF-268 CNS
# EKVX NSCLC = test system: EKVX NSCLC
# NCI-H226 lung = test system: NCI-H226 lung
# UACC-257 melanoma = test system: UACC-257 melanoma
# MALME-3M melanoma = test system: MALME-3M melanoma
# A498 renal = test system: A498 renal
# M19-MEL melanoma = test system: M19-MEL melanoma
# P388 leukemia = test system: P388 leukemia
compound,measurement,setting,value
O=C(O)CCC(NC(=O)c1ccc(Nc2nc3cc(C(F)(F)F)ccc3nc2-c2ccccc2)cc1)C(=O)O (stereo unspecified),TGI,HCT-116 colon,> 100 µM
same,TGI,P388/ADR leukemia,> 100 µM
same,TGI,OVCAR-8 ovarian,> 100 µM
same,TGI,SF-539 CNS,> 100 µM
same,TGI,SNB-75 CNS,> 100 µM
same,TGI,HOP-92 NSCLC,> 100 µM
same,TGI,OVCAR-3 ovarian,> 100 µM
same,TGI,SW-620 colon,> 100 µM
same,TGI,HT29 colon,> 69.8 µM
same,TGI,UACC-62 melanoma,> 100 µM
same,TGI,DLD-1 colon,> 100 µM
same,TGI,RXF 393 renal,94.8 µM
same,TGI,DMS 114 small cell lung,> 100 µM
same,TGI,SK-MEL-28 melanoma,> 100 µM
same,TGI,HCC-2998 colon,> 100 µM
same,TGI,K-562 leukemia,> 100 µM
same,TGI,NCI-H460 lung,> 100 µM
same,TGI,OVCAR-4 ovarian,> 100 µM
same,TGI,KM20L2 colon,53.3 µM
same,TGI,SN12C renal,> 100 µM
same,TGI,U251 CNS,> 100 µM
same,TGI,NCI-H522 lung,> 91.6 µM
same,TGI,HOP-18 NSCLC,> 100 µM
same,TGI,HL-60(TB) leukemia,> 100 µM
same,TGI,SK-MEL-2 melanoma,> 100 µM
same,TGI,KM12 colon,> 100 µM
same,TGI,UO-31 renal,> 100 µM
same,TGI,HOP-62 NSCLC,> 100 µM
same,TGI,SK-OV-3 ovarian,> 100 µM
same,TGI,HCT-15 colon,> 100 µM
same,TGI,SNB-19 CNS,> 100 µM
same,TGI,SK-MEL-5 melanoma,> 100 µM
same,TGI,IGROV1 ovarian,> 100 µM
same,TGI,MCF7 breast,> 100 µM
same,TGI,OVCAR-5 ovarian,> 100 µM
same,TGI,COLO 205 colon,> 100 µM
same,TGI,SNB-78 CNS,> 100 µM
same,TGI,NCI/ADR-RES ovarian,> 100 µM
same,TGI,SF-295 CNS,> 100 µM
same,TGI,SN12K1 renal,> 100 µM
same,TGI,MOLT-4 leukemia,> 100 µM
same,TGI,RPMI-8226 leukemia,> 100 µM
same,TGI,DMS 273 small cell lung,46.6 µM
same,TGI,XF 498 CNS,> 100 µM
same,TGI,CCRF-CEM leukemia,> 100 µM
same,TGI,A549 NSCLC,> 100 µM
same,TGI,LOX IMVI melanoma,> 100 µM
same,TGI,NCI-H23 lung,> 100 µM
same,TGI,SF-268 CNS,> 100 µM
same,TGI,EKVX NSCLC,> 100 µM
same,TGI,NCI-H226 lung,> 100 µM
same,TGI,UACC-257 melanoma,> 100 µM
same,TGI,MALME-3M melanoma,> 100 µM
same,TGI,A498 renal,> 100 µM
same,TGI,M19-MEL melanoma,> 100 µM
same,TGI,P388 leukemia,> 100 µM
